Measurements taken from patent US11607404B2, “Combinations of RAD51 and PARP inhibitors” (Cyteir Therapeutics, Inc., priority 2019, dated 2023).
Like-named read-outs stand apart in the source and are kept apart here.

Assays:
[1] = tested on: WI-38 cells (AID negative); assay: Primary screening cell killing assay repeated in AID negative cells; assay type: cell-based, Human
Experimental: (§1) Primary screening was a phenotypic screen that utilized the synthetic lethal interaction between AID and RAD51 to identify compounds that were both potent and on target. AID expressing cells are dependent upon RAD51 for survival; inhibiting RAD51 in AID positive cells results in a cytotoxic effect.
Percent cell death and EC50 values were calculated by comparing the cell viability of the compound treated wells to the non-treated wells. Normalized RLU values were obtained by subtracting the media well values from each of the wells in the same column, and then dividing that value by the DMSO treated cells values. The percent kill was then calculated by subtracting the normalized RLU value from 1 and multiplying by 100. The average normalized percent kill value and standard error of the mean was then calculated. The kill values were then inputted into Prism with the corresponding standard errors. In Prism a non-linear regression line was plotted with the data points using a semi-log scale, and the EC50 value was calculated.
The activity of the claimed compounds was measured in a variety of cell lines with different expression levels of activation induced cytidine deaminase (AICDA). The potency assay was repeated in all of the listed cell lines and the EC50 values recorded.

[2] = tested on: Daudi cell line (AID positive); assay: Primary screening cell killing assay (Cell-Titer Glo, Day 7); assay type: cell-based; conditions: Homo sapiens
Experimental: as §1
(§2) The first step was to set up a cell killing assay in the Daudi cell line (AID positive). A 96 well u-bottom plate was prepared by writing the experiment number, plate number, date and initials in the top right corner of the plate lid. With a sterile 300 ml reservoir, and 25 ml serological pipette, evaporation buffer media was pipetted into reservoir in 25 ml increments. Using the liquid handler, 150 ul of evaporation buffer media was pipetted from reservoir into rows A and H, and Columns 1 and 12 of the 96 well u-bottom plate. Cell cultures were counted to obtain the density of cells per ml, and the culture viability. The cell density information was used to obtain 1,000,000 cells from culture using a 5 mL serological pipette into an epi tube. The cell density information from the culture was used to calculate the number of cells and volume of media needed for the assay to seed 1250 cells in 130 ul of media per available culture well in the 96 well u-bottom plate. Rows B through F were used for cells (50 wells in total), with row G left for an empty media control. The calculation was overestimated by 10 mL to account for the dead volume in the 300 ml reservoir. Once the media volume was calculated, the appropriate volume of media was pipetted in 25 mL increments into the 250 mL bottle using a 25 mL serological pipette. The 250 ml bottle was capped tightly, and placed into a 37° C. water bath for 2 minutes. While the culture media was warming, 10 mL of fresh media was pipetted from the 500 mL culture media bottle into a sterile 25 mL reservoir. Using the Eppendorf multichannel pipette, 130 ul of media was piptted from the 25 mL reservoir into row G of the 96 well u-bottom plate. Once the 250 mL bottle of media was warmed, the volume of culture needed was pipetted into the bottle, and mixed gently with a 25 mL serological pipette as to not create bubbles, and then the contents of the bottle were pipetted into a new 300 mL reservoir. Using the liquid handler, 130 ul of culture was pipetted from the 300 mL reservoir into rows B through F of the 96 well u-bottom plate. Once the culture was added, the plate was placed into a 37° C. incubator until the compound master plate was prepared for use.
(§3) Two 96 well u-bottom plates were prepared by writing the master plate name in the upper right corner of the plate lid. Labeling one DMSO master and the other Media Master. The compounds of interest were obtained from the laboratory freezer, and placed into a 25 well storage box with a lid, and set the box aside. The compounds were vortexed after thawing but before use. Using an automatic multichannel pipette, 20 ul of 100% DMSO was pipetted into wells B3-B11 through G3-G11 of the DMSO master plate. For each compound on the master plate, 50 ul of the compound were pipetted in the appropriate well of row 2 (reference plate map to determine appropriate well). A serial dilution was prepared beginning by aspirating 20 ul from row 2 and mixing with row 3, repeating until row 11 was reached. Using the liquid handler, 194 ul of Daudi media was dispensed into wells B2-B11 through G2-G11 of the Media master plate. Using the liquid handler, 6 ul from the DMSO master plate was aspirated and dispensed into the media master plate, mixing 100 ul twice.
Compounds from master plate were then added to the culture plate. The culture plates were removed from the incubator, and set inside the biosafety cabinet. Using a liquid handler, 20 ul from wells B2 to B11 through G2 to G11 of master plate were aspirated, and dispensed into wells B2 to B11 through G2 to G11 of culture plate. This set was continued with each culture plate. […]

[3] = Bi-directional Caco-2 permeability; assay type: in vitro ADME; conditions: human
Experimental: Bi-directional Caco-2 permeability was assayed. Caco-2 cells were seeded onto permeable polycarbonate supports and allowed to differentiate for about 3 weeks prior to being used in the assays. The cells were then exposed to the compounds from either the apical or basolateral sides and incubated at 37 C for up to 90 minutes under light agitation. Compound transport was then measured using LC/MS/MS analysis at 30, 60, and 90 minutes.

[4] = Human liver microsome stability; assay type: in vitro ADME; conditions: for Human Liver Microsome Stability Half Life: 37° C., 45 minutes incubation; for Human Liver Microsome Stability % QH: percentage of hepatic blood flow
Experimental: The stability of the claimed compounds was determined in the presences of human liver microsomes. The compounds were incubated with the microsomes at 37° C. for 45 minutes. Samples were analyzed using LC-MS/MS. Data analysis included half-life, clearance rate, and the percentage of hepatic blood flow (% QH) for each of the compounds in the different species.

[5] = Pharmacokinetic (PK) study; assay type: in vivo, Rat; conditions: po @ 80 mg/kg (30% PEG400, 10% Vitamin E TPGS in water)
Experimental: PK studies in mice were used to determine the fate of the compounds in a whole organism. Rats were treated with the compounds either orally of via IV at the indicated doses and followed for up to 24 hours. Plasma samples were taken at different time points and analyzed by LC-MS.

[6] = tested on: OV56 (Ovary); assay: Cell line screen (potency assay); assay type: cell-based; conditions: AICDA expression Low
Experimental: as §2, §3
(§4) Compounds from master plate were then added to the culture plate. The culture plates were removed from the incubator, and set inside the biosafety cabinet. Using a liquid handler, 20 ul from wells B2 to B11 through G2 to G11 of master plate were aspirated, and dispensed into wells B2 to B11 through G2 to G11 of culture plate. This set was continued with each culture plate. Once the culture plates acquired their 20 ul of compound dilutions, they were placed back into the incubator, until their reads on Day 7 of experiment. Cell death was measured on Day 7 of the experiment using Cell-Titer Glo and a Promega Plate reader. […]

[7] = tested on: U-698-M (Lymphoma); assay: Cell line screen (potency assay); assay type: cell-based; conditions: AICDA expression High
Experimental: as §2, §3, §4

[8] = tested on: KYSE-70 (Head and Neck); assay: Cell line screen (potency assay); assay type: cell-based; conditions: Homo sapiens, AICDA expression Low
Experimental: as §2, §3, §4

[9] = tested on: TOV-1120D (Ovary); assay: Cell line screen (potency assay); assay type: cell-based; conditions: AICDA expression Negative
Experimental: as §2, §3, §4

[10] = tested on: KG-1 (Leukemia); assay: Cell line screen (potency assay); assay type: cell-based; conditions: AICDA expression Negative
Experimental: as §2, §3, §4

[11] = tested on: ARPE19/HPV16 (HPV Immortalized RPE); assay: Cell line screen (potency assay); assay type: cell-based; conditions: ARPE-19, AICDA expression Negative
Experimental: as §2, §3, §4

[12] = tested on: KYSE-510 (Head and Neck); assay: Cell line screen (potency assay); assay type: cell-based; conditions: Homo sapiens, AICDA expression Negative
Experimental: as §2, §3, §4

[13] = tested on: WSU-FSCCL (Lymphoma); assay: Cell line screen (potency assay); assay type: cell-based; conditions: AICDA expression Negative
Experimental: as §2, §3, §4

[14] = tested on: CCRF-SB (Leukemia); assay: Cell line screen (potency assay); assay type: cell-based; conditions: Homo sapiens, AICDA expression High
Experimental: as §2, §3, §4

[15] = Homo sapiens, WI-38 cells (AID negative), read-out: AID− EC50
[16] = 168 h, Daudi cells (AID positive), cell death on Day 7, read-out: AID+ EC50
[17] = Caco-2, apical to basolateral, read-out: AB Recovery %
[18] = Caco-2, basolateral to apical, read-out: BA Recovery %
[19] = WI-38 (Normal Human Lung Fibroblast), AICDA expression Negative, read-out: EC50
[20] = Daudi (Lymphoma), AICDA expression High, read-out: EC50

## CC(C)OC(=O)NC1CCC(c2nc(F)c(-c3ccc(NC(=O)NCc4ccccc4)cc3S(=O)(=O)NC(C)(C)C)s2)CC1 (stereo not shown) [Compound 57]
[1]; [15]
  EC50: > 1000 nM
[2]; [16]
  EC50: ≤ 100 nM
[3]; [17]
  recovery at 90 min: 61.9%
[3]; [18]
  recovery at 90 min: 86.8%
[3]; Caco-2, apical to basolateral, 37 C, up to 90 minutes, read-out: AB Papp (cm/sec × 10^6)
  Papp A→B: 1.3 ×10⁻⁶ cm/s
[3]; Caco-2, basolateral to apical, 37 C, up to 90 minutes, read-out: BA Papp (cm/sec × 10^6)
  Papp B→A: 3.5 ×10⁻⁶ cm/s
[3]; Caco-2 efflux ratio, read-out: BA/AB Ratio
  efflux ratio: 2.7

## CC(C)OC(=O)N[C@H]1CC[C@H](c2ncc(-c3ccc(NC(=O)NCc4ccccn4)cc3S(=O)(=O)NC(C)(C)C)s2)CC1 [Compound 29]
[4]
  Human Liver Microsome Stability Half Life: 0.342 h
  Human Liver Microsome Stability % QH: 78.8%
[1]; [15]
  EC50: > 1000 nM
[1]; [19]
  EC50: > 10000 nM
[2]; [16]
  EC50: ≤ 100 nM
[2]; [20]
  EC50: 43 nM
[5]; Rat Female
  F (%) @ 5 mg/kg: 8.39%
  T1/2: 4.66 h
[5]; Rat Male
  F (%) @ 5 mg/kg: 3.69%
  T1/2: 3.97 h
[3]; [17]
  recovery at 90 min: 93.9%
[3]; [18]
  recovery at 90 min: 90.9%
[6]
  EC50: 9090 nM
[7]
  EC50: 113 nM
[8]
  EC50: 4660 nM
[9]
  EC50: 9170 nM
[10]
  EC50: > 10000 nM
[11]
  EC50: > 10000 nM
[12]
  EC50: > 10000 nM
[13]
  EC50: 67 nM
[14]
  EC50: 1280 nM

## CC(C)OC(=O)N[C@@H]1CCC(c2ncc(-c3ccc(NC(=O)NCc4ccccc4)cc3S(=O)(=O)NC(C)(C)C)s2)OC1 (mixture of isomers) [Compound 59]
[1]; [15]
  EC50: > 1000 nM
[2]; [16]
  EC50: ≤ 100 nM

## CC(C)OC(=O)NC1CCC(c2ncc(-c3ccc(NC(=O)NCc4ccccc4)cc3S(=O)(=O)NC(C)(C)CO)s2)CC1 (stereo not shown) [Compound 74]
[1]; [15]
  EC50: > 1000 nM
[2]; [16]
  EC50: ≤ 100 nM

## CC(C)OC(=O)NC1CCC(c2ncc(-c3ccc(NC(=O)N[C@@H](C)c4ccccc4)cc3S(=O)(=O)NC(C)(C)C)s2)CC1 (stereo partly shown) [Compound 26]
[1]; [15]
  EC50: > 1000 nM
[2]; [16]
  EC50: ≤ 100 nM

## CC(C)OC(=O)N[C@H]1CC[C@H](c2ncc(-c3ccc(NC(=O)NCc4ncccc4F)cc3S(=O)(=O)NC(C)(C)C)s2)CC1 [Compound 31]
[4]
  Human Liver Microsome Stability Half Life: 0.373 h
  Human Liver Microsome Stability % QH: 77.3%
[1]; [15]
  EC50: > 1000 nM
[1]; [19]
  EC50: > 10000 nM
[2]; [16]
  EC50: ≤ 100 nM
[2]; [20]
  EC50: 20 nM
[5]; Rat Female
  F (%) @ 5 mg/kg: 2.77%
  T1/2: 4.75 h
[5]; Rat Male
  F (%) @ 5 mg/kg: 1.49%
  T1/2: 3.79 h
[3]; [17]
  recovery at 90 min: 70.5%
[3]; [18]
  recovery at 90 min: 92.3%
[7]
  EC50: 31 nM
[8]
  EC50: 4700 nM
[10]
  EC50: 8780 nM
[11]
  EC50: > 10000 nM
[12]
  EC50: > 10000 nM
[13]
  EC50: < 40 nM
[14]
  EC50: 2160 nM

## CC(C)(C)NS(=O)(=O)c1cc(NC(=O)OC2COC2)ccc1-c1cnc(C2CCC(NC(=O)OC3COC3)CC2)s1 (stereo not shown) [Compound 49]
[1]; [15]
  EC50: > 1000 nM
[2]; [16]
  EC50: ≤ 1000 nM
